Measured values: patent US11192859B2, “Quinoline compounds as modulators of RAGE activity and uses thereof” (NEW YORK UNIVERSITY, priority 2016, dated 2021)

Legend:
ctRAGE = ctRAGE (Homo sapiens (Human), UniProt Q15109); assay: Fluorescence binding assay (native tryptophan fluorescence titration); design: key to Fluorescent Binding Assay, Kd (nM): ***: No binding; settings: 10 nM ctRAGE, pH 7.0, 5% DMSO; for Kd: read-out: Fluorescent Binding Assay, Kd
Description: Native tryptophan fluorescence experiments were conducted using a Horiba Jobin Yvon Fluorolog spectrofluorometer. 1 mM of compound was dissolved in 10 mM phosphate buffer [pH 7.0] and 50% DMSO. ctRAGE was bacterially expressed and purified as described^1. 10 nM ctRAGE solution was individually titrated from 0.1 nM-100 μM with the compounds in 100 μL of 10 mM phosphate buffer [pH 7.0] and 5% DMSO. The excitation and emission wavelengths were 280 nm and 352 nm, respectively. Dissociation constants, Kd, were estimated from the changes in peak fluorescence intensities as a function of the free compound concentration by using Prism 5 software (GraphPad). Data were fit to the equation, (F−F0)/Fmax=[compound]/(Kd+[compound]) where F is the fluorescence intensity at a given compound concentration, F0 is the fluorescence intensity of the blank, and Fmax is the maximum fluorescence intensity.

[1] = test system: Murine vascular smooth muscle cells (SMCs); assay: Smooth muscle cell migration assay (wounding assay), RAGE ligand CML-AGE; type: cell-based; design: key to SMC migration Assay, IC50 (nM): ****: No inhibition or bad fit or inhibition out of range; settings: CML-AGE 10 μg/ml, 7 h; for IC50: Mus musculus, read-out: SMC migration Assay, IC50
Description: FIG. 4 depicts effects of compounds on RAGE ligand-stimulated migration of murine aortic smooth muscle cells (SMCs). Migration of SMCs after incubation with the indicated RAGE inhibitor compounds or the parent molecule (“C12”) quinolone from the Chem-Bridge library was assessed. SMCs were grown to confluence and serum-starved overnight. The following morning, serum free media was removed and compounds were added (1 μM). Immediately following the addition of compounds, the monolayer was wounded using a p200 pipette tip and allowed to incubate for 1.5 h. Following this incubation, compounds were removed and fresh media containing RAGE ligand, CML-AGE (10 μg/ml), was added for 7 h. All images were measured at TO and T7 h and an area ingrowth of effective migrating cells was calculated. Each compound was tested in three independent wells and each well was photographed in 3 separate locations for a total of 9 images used in assessing area ingrowth. Error bars represent SEM. * indicates p<0.05 comparing CML-AGE vs. CML-AGE and compound treatment and # indicates p<0.001 comparing CML-AGE vs. serum free medium (SFM) vehicle. Note that SFM is the vehicle into which the RAGE ligand, CML-AGE, is added for testing the effect of RAGE ligand.
Murine vascular smooth muscle cells (SMCs) were cultured from the aortas of 10-week old male mice using a modification of the procedure of Travo and Barret^17. SMCs were cultured following an explant protocol in accordance with institutional guidelines. Wild-type murine aortic vascular SMCs were isolated and used between passages 8 to 12. Migration in response to the RAGE ligand CML-AGE (CML, 10 μg/ml) or a general effector, not a RAGE ligand, PDGF-BB, 10 ng/ml (R&D systems, Minneapolis, Minn., USA) was assessed with a wounding assay. Cells were grown to confluence in 12-well plates and starved overnight. The following morning, serum free media was removed and compounds were added. Immediately following the addition of compounds, the monolayer was wounded using a p200 pipette tip and the compounds were allowed to incubate for 1.5 h. Following this incubation, all compounds were removed and fresh media containing RAGE ligand or general effector, PDGF-BB, was added for 7 h. Cells were maintained at 37° C. and 5% CO2. Images were obtained at TO and T7. Each image was measured and an area ingrowth of effective migrating cells was calculated. The SMC migration assay data for representative compounds, Compounds 229 and 247, is depicted in FIGS. 5a and 5b, respectively.

Chain of ctRAGE (Q15109 364-404): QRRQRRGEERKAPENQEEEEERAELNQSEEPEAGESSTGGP

Compound | Kd (ctRAGE) | IC50 [1] | Fluorescent Binding Assay, Kd (nM) (ctRAGE) | SMC migration Assay, IC50 (nM) [1]
CC(=O)Nc1ccc(-c2cc(CN3CCOCC3)c3ccccc3n2)cc1F [Compound 214, N-(2-fluoro-4-(4-(morpholinomethyl)quinolin-2-yl)phenyl)acetamide] | 0.034 µM | 0.004 µM |  | 
CC(=O)Nc1ccc(-c2cc(CN3CCOCC3)c3ccccc3n2)cc1Cl [Compound 215, N-(2-chloro-4-(4-(morpholinomethyl)quinolin-2-yl)phenyl)acetamide] | 0.027 µM | 0.46 µM |  | 
CC(=O)Nc1ccc(-c2cc(CN3CCOCC3)c3ccccc3n2)cc1O [Compound 217, N-(2-hydroxy-4-(4-(morpholinomethyl)quinolin-2-yl)phenyl)acetamide] |  |  | *** | ****
CC(=O)Nc1ccc(-c2cc(CN3CCOCC3)c3ccccc3n2)cc1C#N [Compound 218, N-(2-cyano-4-(4-(morpholinomethyl)quinolin-2-yl)phenyl)acetamide] | 0.08 µM | 0.133 µM |  | 
CC(=O)Nc1ccc(-c2cc(CN3CCOCC3)c3ccc(C#N)cc3n2)cc1 [Compound 229, N-(4-(7-cyano-4-(morpholinomethyl)quinolin-2-yl)phenyl)acetamide] | 0.003 µM | 0.0002 µM |  | 
CC(=O)Nc1ccc(-c2cc(CN3CCOCC3)c3ccc(C(N)=O)cc3n2)cc1 [Compound 230, 2-(4-acetamidophenyl)-4-(morpholinomethyl)quinoline-7-carboxamide] |  |  | *** | ****
CC(=O)Nc1ccc(-c2cc(CNCCO)c3ccccc3n2)cc1 [Compound 231, N-(4-(4-(((2-hydroxyethyl)amino)methyl)quinolin-2-yl)phenyl)acetamide] | 0.047 µM | 0.018 µM |  | 
CC(=O)Nc1ccc(-c2cc(CN(C)CCO)c3ccccc3n2)cc1 [Compound 232, N-(4-(4-(((2-hydroxyethyl)(methyl)amino)methyl)quinolin-2-yl)phenyl)acetamide] |  |  | *** | ****
COCCNCc1cc(-c2ccc(NC(C)=O)cc2)nc2ccccc12 [Compound 233, N-(4-(4-(((2-methoxyethyl)amino)methyl)quinolin-2-yl)phenyl)acetamide] |  |  |  | ****
COCCN(C)Cc1cc(-c2ccc(NC(C)=O)cc2)nc2ccccc12 [Compound 234, N-(4-(4-(((2-methoxyethyl)(methyl)amino)methyl)quinolin-2-yl)phenyl)acetamide] | 0.012 µM | 0.0004 µM |  | 
CCCNCc1cc(-c2ccc(NC(C)=O)cc2)nc2ccccc12 [Compound 235, N-(4-(4-((propylamino)methyl)quinolin-2-yl)phenyl)acetamide] | 0.076 µM | 0.017 µM |  | 
CCCN(C)Cc1cc(-c2ccc(NC(C)=O)cc2)nc2ccccc12 [Compound 236, N-(4-(4-((methyl(propyl)amino)methyl)quinolin-2-yl)phenyl)acetamide] | 0.056 µM | 0.0001 µM |  | 
CCCCNCc1cc(-c2ccc(NC(C)=O)cc2)nc2ccccc12 [Compound 237, N-(4-(4-((butylamino)methyl)quinolin-2-yl)phenyl)acetamide] |  |  | *** | ****
COc1ccc2c(CN3CCOCC3)cc(-c3ccc(NC(C)=O)c(Cl)c3)nc2c1 [Compound 257, N-(2-chloro-4-(7-methoxy-4-(morpholinomethyl)quinolin-2-yl)phenyl)acetamide] |  | 1.5 µM |  | 
COc1ccc2c(CN3CCOCC3)cc(-c3ccc(NC(C)=O)c(C#N)c3)nc2c1 [Compound 258, N-(2-cyano-4-(7-methoxy-4-(morpholinomethyl)quinolin-2-yl)phenyl)acetamide] |  | 0.323 µM |  | 
CC(=O)Nc1ccc(-c2cc(CN3CCOCC3)c3ccc(C#N)cc3n2)cc1F [Compound 259, N-(4-(7-cyano-4-(morpholinomethyl)quinolin-2-yl)-2-fluorophenyl)acetamide] |  |  |  | ****
CC(=O)Nc1ccc(-c2cc(CN3CCOCC3)c3ccc(C#N)cc3n2)cc1Cl [Compound 260, N-(2-chloro-4-(7-cyano-4-(morpholinomethyl)quinolin-2-yl)phenyl)acetamide] |  | 0.014 µM |  | 
CC(=O)Nc1ccc(-c2cc(CN3CCOCC3)c3ccc(C#N)cc3n2)cc1C#N [Compound 261, N-(2-cyano-4-(7-cyano-4-(morpholinomethyl)quinolin-2-yl)phenyl)acetamide] |  | 1.4 µM |  | 
CCOc1ccc2c(CN3CCOCC3)cc(-c3ccc(NC(C)=O)c(F)c3)nc2c1 [Compound 262, N-(4-(7-ethoxy-4-(morpholinomethyl)quinolin-2-yl)-2-fluorophenyl)acetamide] |  | 2.9 µM |  | 

The remaining lines, values ahead:

Kd (ctRAGE) | IC50 [1] | Fluorescent Binding Assay, Kd (nM) (ctRAGE) | SMC migration Assay, IC50 (nM) [1] | Compound
 |  | *** | **** | COc1cc(-c2cc(CN3CCOCC3)c3ccccc3n2)ccc1NC(C)=O [Compound 216, N-(2-methoxy-4-(4-(morpholinomethyl)quinolin-2-yl)phenyl)acetamide]
0.089 µM |  |  | **** | O=C(CO)Nc1ccc(-c2cc(CN3CCOCC3)c3ccccc3n2)cc1 [Compound 219, 2-hydroxy-N-(4-(4-(morpholinomethyl)quinolin-2-yl)phenyl)acetamide]
0.022 µM | 0.3 µM |  |  | COCC(=O)Nc1ccc(-c2cc(CN3CCOCC3)c3ccccc3n2)cc1 [Compound 220, 2-methoxy-N-(4-(4-(morpholinomethyl)quinolin-2-yl)phenyl)acetamide]
0.034 µM | 5 µM |  |  | NCC(=O)Nc1ccc(-c2cc(CN3CCOCC3)c3ccccc3n2)cc1 [Compound 221, 2-amino-N-(4-(4-(morpholinomethyl)quinolin-2-yl)phenyl)acetamide]
0.032 µM | 3.2 µM |  |  | CC(=O)NCC(=O)Nc1ccc(-c2cc(CN3CCOCC3)c3ccccc3n2)cc1 [Compound 222, 2-acetamido-N-(4-(4-(morpholinomethyl)quinolin-2-yl)phenyl)acetamide]
0.072 µM |  |  |  | CCC(=O)Nc1ccc(-c2cc(CN3CCOCC3)c3ccccc3n2)cc1 [Compound 223, N-(4-(4-(morpholinomethyl)quinolin-2-yl)phenyl)propionamide]
0.032 µM | 0.099 µM |  |  | CC(C)C(=O)Nc1ccc(-c2cc(CN3CCOCC3)c3ccccc3n2)cc1 [Compound 224, N-(4-(4-(morpholinomethyl)quinolin-2-yl)phenyl)isobutyramide]
0.122 µM | 0.044 µM |  |  | CC(=O)Nc1ccc(-c2cc(CN3CCOCC3)c3ccc(F)cc3n2)cc1 [Compound 225, N-(4-(7-fluoro-4-(morpholinomethyl)quinolin-2-yl)phenyl)acetamide]
0.025 µM | 0.003 µM |  |  | CC(=O)Nc1ccc(-c2cc(CN3CCOCC3)c3ccc(Cl)cc3n2)cc1 [Compound 226, N-(4-(7-chloro-4-(morpholinomethyl)quinolin-2-yl)phenyl)acetamide]
0.01 µM |  |  | **** | CC(=O)Nc1ccc(-c2cc(CN3CCOCC3)c3ccc(C)cc3n2)cc1 [Compound 227, N-(4-(7-methyl-4-(morpholinomethyl)quinolin-2-yl)phenyl)acetamide]
0.122 µM | 0.01 µM |  |  | COc1ccc2c(CN3CCOCC3)cc(-c3ccc(NC(C)=O)cc3)nc2c1 [Compound 228, N-(4-(7-methoxy-4-(morpholinomethyl)quinolin-2-yl)phenyl)acetamide]
